Laboratory results from US3985790A, “Phenoxyalkane carboxylic acid derivative” (priority 1974, dated 1976).
Read-outs that look alike come from different tables or passages of the source.

How the values were obtained:
[1] = system: serum cholesterol and serum triglyceride levels; format: in vivo, SPF-Wistar rats; conditions: 14 days
Excerpt: (§1) The therapeutic effectiveness of the salt of this invention ("clofibrinate") was compared with that of the fundamental parent substance, namely the 4-(p-chlorophenoxyacetylamino)-benzoic acid diethylaminoethyl ester, as well as clofibrate, that is the ethyl ester of clofibrinic acid, using SPF-Wistar rats. In these tests the compound in a vehicle was supplied orally for a period of 14 days. Twenty-four hours after the last dose blood analyses were made for determining the serum cholesterol and serum triglyceride levels.
In a first series of experiments, the effectiveness was studied in rats having normal blood lipid levels which were made hyperlipemic by means of a special fatty diet 1. This cholesterol-rich fatty diet 1 corresponded to that of Berger et al., Proc. Soc. Ex. Biol. (1969) 132,293.

[2] = system: serum cholesterol and serum triglyceride levels; assay: Antilipemic effect in young male rats, fatty diet 2 (high cholesterol-high fat), 14 days oral; format: in vivo, SPF-Wistar rats; conditions: fatty diet 2, 250 mg/kg oral
Excerpt: In these tests the compound in a vehicle was supplied orally for a period of 14 days. Twenty-four hours after the last dose blood analyses were made for determining the serum cholesterol and serum triglyceride levels. In a second series young male rats of 80-90 grams weight were fed a fat and cholesterol-rich diet (fatty diet 2). The statistical significance (p) of the results is also given.

Acute toxicity (LD50) = conditions: mouse, in vivo
[3] = system: blood serum cholesterol and lipid levels; assay: Effect on blood serum cholesterol and lipid levels, tolerability and toxicity, general statements; format: in vivo, SPF-Wistar rats; conditions: hyperlipemic conditions
Excerpt: as §1
In a first series of experiments, the effectiveness was studied in rats having normal blood lipid levels which were made hyperlipemic by means of a special fatty diet 1. This cholesterol-rich fatty diet 1 corresponded to that of Berger et al., Proc. Soc.
In a second series young male rats of 80-90 grams weight were fed a fat and cholesterol-rich diet (fatty diet 2). The statistical significance (p) of the results is also given.

human lipid metabolism = conditions: French Pat. No. 1,552,793; cited from earlier work
[4] = fatty diet 1, 1000 mg/kg oral, 3 of 10 animals died

SMILES | Decrease of cholesterol ([1]; fatty diet 1, 250 mg/kg oral) [%] | Decrease of triglycerides ([1]; fatty diet 1, 250 mg/kg oral) [%] | Final Value Cholest. ([1]; fatty diet 1, 250 mg/kg oral) [mg%] | Final Value Triglycerides ([1]; fatty diet 1, 250 mg/kg oral) | Decrease of cholesterol [1, 4] [%] | Final Value Cholest. [1, 4] [mg%] | Final Value Triglycerides [1, 4] | Decrease of triglycerides [2] [%] | Final Value Cholest. [2] [mg %] | Final Value Triglycerides [2] | LD50 (Acute toxicity (LD50)) [mg/kg] | effectiveness against elevated cholesterol and elevated triglyceride levels [3] | Decrease of cholesterol ([1]; fatty diet 1, 100 mg/kg oral) [%] | Final Value Cholest. ([1]; fatty diet 1, 100 mg/kg oral) [mg%] | Final Value Triglycerides ([1]; fatty diet 1, 100 mg/kg oral) | influence on human lipid metabolism (human lipid metabolism)
CCOC(=O)C(C)(C)Oc1ccc(Cl)cc1 [Clofibrate, ethyl-2-(p-chlorophenoxy)-isobutyrate] | 3.0 | 12.5 | 347.9 | 75.6 | 31.6 | 245.4 | 120.3 | 20.6 | 133.3 | 107.7 | 1150 | only slightly effective under hyperlipemic conditions or even fails completely | – | – | – | –
CCN(CC)CCOC(=O)c1ccc(NC(=O)COc2ccc(Cl)cc2)cc1 [Parent Compound, 4-(p-chlorophenoxyacetylamino)-benzoic acid diethylaminoethyl ester] | 24.9 | – | 269.4 | 101.6 | – | – | – | – | – | – | – | – | 7.8 | 330.6 | 114.9 | have an influence on human lipid metabolism
